Laboratory results from PMC8145327, “S100P Interacts with p53 while Pentamidine Inhibits This Interaction” (Biomolecules, 2021).

Biological target: T1, S100P (Homo sapiens, UniProt P25815)
T1 construct: 15N-labeled human S100P (95 amino acid residues)
T1 sequence (P25815 1-95): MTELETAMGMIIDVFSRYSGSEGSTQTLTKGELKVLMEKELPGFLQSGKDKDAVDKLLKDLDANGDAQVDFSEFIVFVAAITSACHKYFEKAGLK
Assay: 1H-15N HSQC NMR titration (chemical shift perturbation)
Type: binding

Kd: 48.7 µM
Structure (SMILES): N=C(N)c1ccc(OCCCCCOc2ccc(C(=N)N)cc2)cc1 [pentamidine]
